Activity calls are given as the source filed them. The calls are words filed in the database; no cut-off is given here. Square brackets hold non-standard residues; d marks the D form. Peptide text beside a SMILES is read from it. sY = N[C@@H](Cc1ccc(OS(=O)(=O)O)cc1)C(=O)O
Tests used:
Cavia porcellus [1] = species on record: Cavia porcellus; experiment: Increase in [Ca2+] efflux from guinea pig pancreatic acinar cells measured for 5 mins relative to control; format: functional
[2] = Increase in [Ca2+] efflux from guinea pig pancreatic acinar cells at 10^-8 M assessed per minute relative to control; format: functional, Cavia porcellus
Cavia porcellus [3] = species on record: Cavia porcellus; experiment: Increase in [Ca2+] efflux from guinea pig pancreatic acinar cells at 3 x 10^-11 M measured for 5 mins relative to control; format: functional

In the case of `CSCC[C@H](NC(=O)[C@H](Cc1c[nH]c2ccccc12)NC(=O)CNC(=O)[C@H](CCSC)NC(=O)[C@@H](N)COS(=O)(=O)O)C(=O)N[C@@H](CC(=O)O)C(=O)N[C@@H](Cc1ccccc1)C(N)=O`, the Activity (Cavia porcellus [1]) is reported as “Active”.

In the case of `CSCC[C@H](NC(=O)[C@H](Cc1c[nH]c2ccccc12)NC(=O)CNC(=O)[C@H](CCSC)NC(=O)[C@@H](N)CO)C(=O)N[C@@H](CC(=O)O)C(=O)N[C@@H](Cc1ccccc1)C(N)=O` (H-SMGWMDF-NH2), the Activity (Cavia porcellus [1]) is reported as “Active”.

In the case of `CSCC[C@H](NC(=O)[C@H](Cc1c[nH]c2ccccc12)NC(=O)CNC(=O)[C@H](CCSC)NC(=O)[C@@H](N)Cc1ccc(O)cc1)C(=O)N[C@@H](CC(=O)O)C(=O)N[C@@H](Cc1ccccc1)C(N)=O` (H-YMGWMDF-NH2), the Activity (Cavia porcellus [1]) is reported as “Active”.

In the case of `CSCC[C@H](NC(=O)[C@H](Cc1c[nH]c2ccccc12)NC(=O)CNC(=O)[C@H](CCSC)NC(=O)[C@@H](N)Cc1ccc(OS(=O)(=O)O)cc1)C(=O)N[C@@H](CC(=O)O)C(=O)N[C@@H](Cc1ccccc1)C(N)=O` (H-[sY]MGWMDF-NH2), the Activity [2] is reported as 26.2%, the Activity (Cavia porcellus [3]) is reported as “Active” and the Activity (Cavia porcellus [1]) is reported as “Active”.

Reference: ChEMBL document CHEMBL3244372, “Cholecystokinin (pancreozymin). 3. Synthesis and properties of an analogue of the C-terminal heptapeptide with serine sulfate replacing tyrosine sulfate” (1977)
